Measurements as given in patent publication US10391070B2, “Compositions and methods for treating neurological diseases or injury” (MUSC FOUNDATION FOR RESEARCH DEVELOPMENT, priority 2012, dated 2019).
Read-outs that look alike come from different tables or passages of the source.

What was measured:
Type in all cases: cell-based, mouse
[1] = tested on: HT22 cells; experiment: In vitro neuroprotective activity against glutamate-induced cell death (MTS cell viability); details: Mus musculus, read-out: Protection PC50
Description: (§1) The HT22 neuronal cell line is a subclone of HT4, derived from the mouse hippocampus (Morimoto and Koshland, 1990). […] HT22 cells were used. The cells were grown in Dulbecco's Modified Eagle's medium (DMEM/high glucose) supplemented with 10% fetal bovine serum (Hyclone) and 5 mL Antibiotic-Antimycotic (Amphotericin B, Penicillin, and Streptomycin; Invitrogen) at 37° C. in 5% CO2.
(§2) Cell viability was assessed by the ability of the viable cells to metabolize 3-(4,5-dimethylthiazol-2-yl)-5-(3-carboxymethoxyphenyl)-2(4-sulfophenyl)2-H-tetrazolium, inner salt (MTS), as described previously (Cory et al., 1991). The metabolism of tetrazolium salts is often used to measure cellular proliferation, but in the system used here, it has been previously shown to correlate well with cell viability as determined by trypan blue exclusion and colony-forming assays (Davis and Maher, 1994). Briefly, HT-22 cells were seeded onto 96-well plates at 5.0×10^3 cells per well in 75 μL of medium and maintained at 37° C. in 5% CO2 overnight prior to the initiation of experimental treatments. For glutamate toxicity testing, cells were subsequently treated with 25 μL of medium containing glutamate (monosodium glutamate, Sigma, 1 M stock concentration in media, to achieve a final concentration of 10 mM) plus inhibitors (stock in DMSO) and maintained at 37° C. in 5% CO2. For t-BuOOH toxicity testing, cells were subsequently treated with 25 μL of medium containing t-BuOOH (Sigma, 10 mM stock concentration, to achieve a final concentration of 50 μM) plus inhibitors (stock in DMSO) and maintained at 37° C. in 5% CO2 for 3 hours, after which the media was removed, cells washed gently with HBSS, the media replaced with standard culture media, and the cells returned to incubation at 37° C. in 5% CO2. For both glutamate and t-BuOOH treatments, 10 μl of MTS solution was added to each well 24 hrs after initial treatment, and the cells were maintained in growth medium for 2 h at 37° C. Absorbance at 490 nm was subsequently measured by a SpectraMax 190 plate reader (Molecular Devices). The growth medium without cells in the presence of MTS solution was used as solution background and untreated cells were considered the controls. Cell viability was calculated as a percentage compared with untreated controls. EC50 determinations were based on 12-point titrations using GraphPad Prism, and each experiment was repeated at least four times. Morphology of HT22 cells following treatments was determined by phase-contrast microscopy. Digital images of cells grown on cell culture plates were captured at 10× magnification.
The neuroprotective properties of VK and its derivatives were estimated through their protective effects against cell death in mouse neuronal HT22 cells induced by exposure to high levels of glutamate, which recapitulates a hallmark of the extracellular environment found in several neurodegenerative diseases and CNS injuries and is a well established model of neuronal oxidative stress. This investigation began by comparing the relative abilities of the two predominant naturally occurring forms of VK, VK1 and VK2, to prevent oxidative cell death. […] Several 1,4-naphthoquinones with various substitutions at the 2′ and 3′ positions were tested to determine the minimum structural requirement of the system and what the optimum scaffold for future developmental efforts and biological validation would be (FIG. 1B and Table 1). […] Substitution by a single methyl group at the 2′ position (VK3) improves the compound's ability to protect against cell death. Various other simple substituents at the 2′ and 3′ positions give the naphthoquinone structure the ability to prevent oxidative cell death at nanomolar concentrations (Table 1 and FIG. 16).

[2] = In vitro neurotoxicity without glutamate (MTS cell viability); details: mouse, HT22 cells without glutamate, 24 hrs, MTS, concentration producing 50% toxicity, read-out: Toxicity TC50
Description: as §1, §2

[3] = tested on: HT22 cells; experiment: as above; details: for Safety Index TC50/PC50: HT22 cells; for CC50: HT22 cells without glutamate, 24 hrs, MTS, concentration producing 50% toxicity, read-out: Toxicity TC50
Description: as §1, §2

[4] = HT-22, HT22 cells, 10 mM glutamate, 24 hrs, MTS, concentration producing 50% protection
[5] = HT22 neuronal cells (without glutamate)

SMILES	EC50 [1, 4] [nM]	CC50 at 24 h [2, 5] [nM]	Safety Index TC50/PC50 [3]	CC50 [3] [nM]	EC50 ([1]; HT-22, 24 h) [nM]	CC50 at 24 h [2] [nM]
O=C(O)c1cc(=O)c2ccccc2o1	> 1000	> 100000				
O=C(O)c1coc2ccccc2c1=O	> 1000	> 100000				
O=C(Nc1ccccc1)c1cc(=O)c2ccccc2o1 [4-oxo-N-phenyl-4H-chromene-2-carboxamide]	> 1000	> 100000				
O=C(Nc1ccccc1)c1coc2ccccc2c1=O [4-oxo-N-phenyl-4H-chromene-3-carboxamide]	> 1000	> 100000				
O=C1C=CC(=O)c2ccccc21 [Compound 1a, 1,4-naphthoquinone, reference compound]	1540		12	19000		
CC1=C(C)C(=O)c2ccccc2C1=O [Compound 1c]	118		254	30000		
NC1=CC(=O)c2ccccc2C1=O [Compound 1d, 2-amino-1,4-naphthoquinone]			803	49000	61	
CC1=C(N)C(=O)c2ccccc2C1=O [Compound 1e, 2-amino-3-methyl-1,4-naphthoquinone]	1740		31	54000		
O=C(O)C1=CC(=O)c2ccccc2C1=O [Compound 1f]	716		140	> 100000		
O=C1C=C(O)C(=O)c2ccccc21 [Compound 1g]			100	> 100000	1000	
CNC1=CC(=O)c2ccccc2C1=O [Compound 2a, 2-(methylamino)naphthalene-1,4-dione]	1350		74	> 100000		
CCNC1=CC(=O)c2ccccc2C1=O [Compound 2b, 2-(ethylamino)naphthalene-1,4-dione]	761		106	81000		
CC(C)NC1=CC(=O)c2ccccc2C1=O [Compound 2d, 2-(isopropylamino)naphthalene-1,4-dione]	1700		27	46000		
CCCNC1=CC(=O)c2ccccc2C1=O [Compound 2e, 2-(propylamino)naphthalene-1,4-dione]	328		91	30000		
O=C1C=C(NC2CCCC2)C(=O)c2ccccc21 [Compound 2f, 2-(cyclopentylamino)naphthalene-1,4-dione]	409		108	44000		
O=C1C=C(NCC2CCCCC2)C(=O)c2ccccc21 [Compound 2g, 2-((cyclohexylmethyl)amino)naphthalene-1,4-dione]	54		1,852	> 100000		
O=C1C=C(Nc2ccccc2)C(=O)c2ccccc21 [Compound 2i, 2-(phenylamino)naphthalene-1,4-dione]			109	7000	64	
CN(Cc1ccccc1)C1=CC(=O)c2ccccc2C1=O [Compound 2k, 2-(benzyl(methyl)amino)naphthalene-1,4-dione]	128		781	> 100000		

SMILES	EC50 [1, 4] [nM]	CC50 at 24 h [2, 5] [nM]	Safety Index TC50/PC50 [3]	CC50 [3] [nM]	EC50 ([1]; HT-22, 24 h) [nM]	CC50 at 24 h [2] [nM]
O=C1C=C(NCCc2ccccc2)C(=O)c2ccccc21 [Compound 2l]	584		171	> 100000		
O=C1C=C(NCc2ccncc2)C(=O)c2ccccc21 [Compound 2m, 2-((pyridin-4-ylmethyl)amino)naphthalene-1,4-dione]	72		1,111	80000		
O=C1C=C(NCc2cccnc2)C(=O)c2ccccc21 [Compound 2n, 2-((pyridin-3-ylmethyl)amino)naphthalene-1,4-dione]	215		172	37000		
O=C1C=C(NCc2ccccn2)C(=O)c2ccccc21 [Compound 2o, 2-((pyridin-2-ylmethyl)amino)naphthalene-1,4-dione]	933		54	50000		
O=C1C=C(NCc2ccc(Cl)cc2)C(=O)c2ccccc21 [Compound 2p, 2-((4-chlorobenzyl)amino)naphthalene-1,4-dione]	59		1,695	> 100000		
Cc1ccc(CNC2=CC(=O)c3ccccc3C2=O)cc1 [Compound 2r, 2-((4-methylbenzyl)amino)naphthalene-1,4-dione]			1,515	> 100000	66	
COc1ccc(CNC2=CC(=O)c3ccccc3C2=O)cc1 [Compound 2s, 2-((4-methoxybenzyl)amino)naphthalene-1,4-dione]	114		877	> 100000		
COC(=O)c1ccc(CNC2=CC(=O)c3ccccc3C2=O)cc1 [Compound 2t, methyl 4-(((1,4-dioxo-1,4-dihydronaphthalen-2-yl)amino)methyl)benzoate]	232		431	> 100000		
O=C1C=C(NCc2cccc(C(F)(F)F)c2)C(=O)c2ccccc21 [Compound 2u, 2-((3-(trifluoromethyl)benzyl)amino)naphthalene-1,4-dione]	45		2,222	> 100000		
O=C1C=C(NCc2ccc(Cl)c(Cl)c2)C(=O)c2ccccc21 [Compound 2v, 2-((3,4-dichlorobenzyl)amino)naphthalene-1,4-dione]	46		2,174	> 100000		
CC(=O)NC1=CC(=O)c2ccccc2C1=O [Compound 3a, N-(1,4-dioxo-1,4-dihydronaphthalen-2-yl)acetamide]	616		162			> 100000
CCC(=O)NC1=CC(=O)c2ccccc2C1=O [Compound 3b, N-(1,4-dioxo-1,4-dihydronaphthalen-2-yl)propionamide]	760		105			80000
COC(=O)NC1=CC(=O)c2ccccc2C1=O [Compound 3c, methyl(1,4-dioxo-1,4-dihydronaphthalen-2-yl)carbamate]	69		72			5000
CC(C)C(=O)NC1=CC(=O)c2ccccc2C1=O [Compound 3d, N-(1,4-dioxo-1,4-dihydronaphthalen-2-yl)isobutyramide]	> 1000	8000	0			
O=C1C=C(NC(=O)C2CCCC2)C(=O)c2ccccc21 [Compound 3e, N-(1,4-dioxo-1,4-dihydronaphthalen-2-yl)cyclopentanecarboxamide]	> 1000	6000	0			
O=C1C=C(NC(=O)C2CCCCC2)C(=O)c2ccccc21 [Compound 3f, N-(1,4-dioxo-1,4-dihydronaphthalen-2-yl)cyclohexanecarboxamide]	275	14000	51			
O=C(NC1=CC(=O)c2ccccc2C1=O)c1ccccc1 [Compound 3g, N-(1,4-dioxo-1,4-dihydronaphthalen-2-yl)benzamide]		17000	34		500	
